Legend:
[1] = Cell cycle arrest in human MCF7 cells assessed as increase in subdiploid cells at 18 uM after 48 hrs by TUNEL based flow cytometry assay; format: functional
[2] = Cell cycle arrest in human MCF7 cells assessed as M1 quadrant cells at 18 uM pretreated with pan-caspase inhibitor Z-VAD-FMK for 1 hr followed by compound addition measured after 48 hrs by propidium iodide staining-based flow cytometry assay (reference value: 98.1%); format: functional; parameters: scale not given: the % may be the effect or the level left
[3] = Cell cycle analysis in human MCF7 cells assessed as accumulation at SubG1 phase at 10 uM measured after 24 hrs by propidium iodide staining-based flow cytometry (reference value: 2.6%); format: functional
[4] = Cell cycle arrest in human MCF7 cells assessed as sub-diploid cells at 18 uM measured after 48 hrs by propidium iodide staining-based flow cytometry (reference value: 1.9%); format: functional
MCF7 = experiment: Selectivity index, ratio of GI50 for human 184B5 cells to GI50 for human MCF7 cells; format: functional
[5] = Cell cycle arrest in human MCF7 cells assessed as M1 quadrant cells at 18 uM pretreated with autophagy inhibitor wortmannin for 1 hr followed by compound addition measured after 48 hrs by propidium iodide staining-based flow cytometry assay (reference value: 98.1%); format: functional; parameters: scale not given: the % may be the effect or the level left
[6] = Cell cycle analysis in human MCF7 cells assessed as accumulation at S phase at 5 uM measured after 24 hrs by propidium iodide staining-based flow cytometry (reference value: 15.3%); format: functional
[7] = Cell cycle analysis in human MCF7 cells assessed as accumulation at SubG1 phase at 5 uM measured after 24 hrs by propidium iodide staining-based flow cytometry (reference value: 2.6%); format: functional
[8] = Cell cycle analysis in human MCF7 cells assessed as accumulation at G0/G1 phase at 10 uM measured after 24 hrs by propidium iodide staining-based flow cytometry (reference value: 73.6%); format: functional
[9] = Cell cycle analysis in human MCF7 cells assessed as accumulation at G0/G1 phase at 1 uM measured after 24 hrs by propidium iodide staining-based flow cytometry (reference value: 73.6%); format: functional
[10] = Cell cycle analysis in human MCF7 cells assessed as accumulation at S phase at 25 uM measured after 24 hrs by propidium iodide staining-based flow cytometry (reference value: 15.3%); format: functional
[11] = Cell cycle analysis in human MCF7 cells assessed as accumulation at G2/M phase at 25 uM measured after 24 hrs by propidium iodide staining-based flow cytometry (reference value: 8.9%); format: functional
[12] = Cell cycle arrest in human MCF7 cells assessed as sub-diploid cells at 18 uM pretreated with autophagy inhibitor wortmannin for 1 hr followed by compound addition measured after 48 hrs by propidium iodide staining-based flow cytometry assay (reference value: 1.9%); format: functional; parameters: scale not given: the % may be the effect or the level left
[13] = Cytotoxicity against human MCF7 cells assessed as reduction in cell viability measured after 72 hrs by MTT assay; format: functional; settings: MCF7, 72 h
[14] = Cytotoxicity against human 184B5 cells assessed as reduction in cell viability measured after 72 hrs by MTT assay; format: toxicity, cell-based
[15] = Cell cycle analysis in human MCF7 cells assessed as accumulation at G2/M phase at 18 uM measured after 24 hrs by propidium iodide staining-based flow cytometry (reference value: 8.9%); format: functional
[16] = Cell cycle analysis in human MCF7 cells assessed as accumulation at S phase at 10 uM measured after 24 hrs by propidium iodide staining-based flow cytometry (reference value: 15.3%); format: functional
[17] = Cell cycle analysis in human MCF7 cells assessed as accumulation at S phase at 1 uM measured after 24 hrs by propidium iodide staining-based flow cytometry (reference value: 15.3%); format: functional
[18] = Cell cycle analysis in human MCF7 cells assessed as accumulation at G2/M phase at 10 uM measured after 24 hrs by propidium iodide staining-based flow cytometry (reference value: 8.9%); format: functional
[19] = Cell cycle analysis in human MCF7 cells assessed as accumulation at SubG1 phase at 25 uM measured after 24 hrs by propidium iodide staining-based flow cytometry (reference value: 2.6%); format: functional
[20] = Cell cycle arrest in human MCF7 cells assessed as M1 quadrant cells at 18 uM measured after 48 hrs by propidium iodide staining-based flow cytometry (reference value: 98.1%); format: functional
[21] = Cell cycle analysis in human MCF7 cells assessed as accumulation at SubG1 phase at 1 uM measured after 24 hrs by propidium iodide staining-based flow cytometry (reference value: 2.6%); format: functional
[22] = Cytotoxicity against human PC3 cells assessed as reduction in cell viability measured after 72 hrs by MTT assay; format: functional; settings: PC-3, 72 h
[23] = Cell cycle analysis in human MCF7 cells assessed as accumulation at G0/G1 phase at 5 uM measured after 24 hrs by propidium iodide staining-based flow cytometry (reference value: 73.6%); format: functional
[24] = Cell cycle analysis in human MCF7 cells assessed as accumulation at G2/M phase at 1 uM measured after 24 hrs by propidium iodide staining-based flow cytometry (reference value: 8.9%); format: functional
[25] = Cell cycle arrest in human MCF7 cells assessed as sub-diploid cells at 18 uM pretreated with pan-caspase inhibitor Z-VAD-FMK for 1 hr followed by compound addition measured after 48 hrs by propidium iodide staining-based flow cytometry assay (reference value: 1.9%); format: functional; parameters: scale not given: the % may be the effect or the level left
[26] = Cell cycle analysis in human MCF7 cells assessed as accumulation at G0/G1 phase at 18 uM measured after 24 hrs by propidium iodide staining-based flow cytometry (reference value: 73.6%); format: functional
[27] = Cell cycle analysis in human MCF7 cells assessed as accumulation at SubG1 phase at 18 uM measured after 24 hrs by propidium iodide staining-based flow cytometry (reference value: 2.6%); format: functional
[28] = Cell cycle analysis in human MCF7 cells assessed as accumulation at S phase at 18 uM measured after 24 hrs by propidium iodide staining-based flow cytometry (reference value: 15.3%); format: functional
[29] = Cell cycle analysis in human MCF7 cells assessed as accumulation at G2/M phase at 5 uM measured after 24 hrs by propidium iodide staining-based flow cytometry (reference value: 8.9%); format: functional
[30] = Cell cycle analysis in human MCF7 cells assessed as accumulation at G0/G1 phase at 25 uM measured after 24 hrs by propidium iodide staining-based flow cytometry (reference value: 73.6%); format: functional

## Cc1noc(C)c1CSC#N
[1]
  Activity: > 60%
[2]
  Activity: 80.9%
[3]
  Activity: 3.4%
[4]
  Activity: 53.7%
MCF7
  RatioGI50: 9.6
[5]
  Activity: 49.6%
[6]
  Activity: 14.9%
[7]
  Activity: 3.3%
[8]
  Activity: 33.8%
[9]
  Activity: 67.6%
[10]
  Activity: 16.3%
[11]
  Activity: 25.8%
[12]
  Activity: 50.4%
[13]
  GI50: 4.8 µM
  LC50: 84.9 µM
  TGI: 44.6 µM
[14]; 184B5 cells
  GI50 at 72 h: 46.2 µM
[14]; 184b5, 72 h
  LC50: 99.5 µM
  TGI: 74.2 µM
[15]
  Activity: 66.1%
[16]
  Activity: 11.6%
[17]
  Activity: 22.2%
[18]
  Activity: 51.8%
[19]
  Activity: 4.4%
[20]
  Activity: 46%
[21]
  Activity: 2%
[22]
  GI50: 8 µM
  LC50 (concentration lethal to 50% of cells): 21.9 µM
  TGI: 13.8 µM
[23]
  Activity: 68.1%
[24]
  Activity: 8.9%
[25]
  Activity: 19.1%
[26]
  Activity: 18.4%
[27]
  Activity: 5.7%
[28]
  Activity: 9.9%
[29]
  Activity: 13.2%
[30]
  Activity: 54.6%

Reference: ChEMBL document CHEMBL3871268, “Chalcogen containing heterocyclic scaffolds: New hybrids with antitumoral activity” (Eur J Med Chem, 2016)
